Measured values published in patent publication US8877748B2, “Heterocyclic fused anthraquinone derivatives, manufacturing method and pharmaceutical composition using thereof” (National Defense Medical Center, priority 2012, dated 2014).
Several values for one entry are separate records, joined by “and”; a condition that tells them apart may be missing. Identical values can stand only once. Blank lines part the entries; values can stand above or below the compound they belong to.

Legend:
HCT-116 = assay: NCI one-dose screening, colon cancer HCT-116; type: cell-based, human; details: 10 μM
SF-539 = assay: NCI one-dose screening, CNS cancer SF-539; type: cell-based, human; details: 10 μM
A549/ATCC = assay: NCI one-dose screening, non-small cell lung cancer A549/ATCC; type: cell-based, human; details: 10 μM
[1] = NCI one-dose screening, renal cancer A489; type: cell-based, human; details: 10 μM
BT-549 = assay: NCI one-dose screening, breast cancer BT-549; type: cell-based, human; details: 10 μM
NCI-H522 = assay: NCI one-dose screening, non-small cell lung cancer NCI-H522; type: cell-based, human; details: 10 μM
MALME-3M = assay: NCI one-dose screening, melanoma MALME-3M; type: cell-based, human; details: 10 μM
MDA-MB-231/ATCC = assay: NCI one-dose screening, breast cancer MDA-MB-231/ATCC; type: cell-based, human; details: 10 μM
NCI-H460 = assay: NCI one-dose screening, non-small cell lung cancer NCI-H460; type: cell-based, human; details: 10 μM
CAKI-1 = assay: NCI one-dose screening, renal cancer CAKI-1; type: cell-based, human; details: 10 μM
CCRF-CEM = assay: NCI screening platform one-dose single concentration screening, leukemia CCRF-CEM; type: cell-based, human; details: 10 μM
SN12C = assay: NCI one-dose screening, renal cancer SN12C; type: cell-based, human; details: 10 μM
LOX IMVI = assay: NCI one-dose screening, melanoma LOX IMVI; type: cell-based, human; details: 10 μM
NCI-H322M = assay: NCI one-dose screening, non-small cell lung cancer NCI-H322M; type: cell-based, human; details: 10 μM; Non-small cell lung cancer
COLO 205 = assay: NCI one-dose screening, colon cancer COLO 205; type: cell-based, human; details: 10 μM
UACC-257 = assay: NCI one-dose screening, melanoma UACC-257; type: cell-based, human; details: 10 μM
SNB-75 = assay: NCI one-dose screening, CNS cancer SNB-75; type: cell-based, human; details: 10 μM
human tumor cell lines = assay: NCI one-dose screening, Mean / Delta / Range of growth percent over all tested cell lines; type: cell-based; details: 10 μM
MCF7 = assay: NCI one-dose screening, breast cancer MCF7; type: cell-based, human; details: 10 μM
T-47D = assay: NCI one-dose screening, breast cancer T-47D; type: cell-based, human; details: 10 μM
SR = assay: NCI one-dose screening, leukemia SR; type: cell-based, human; details: 10 μM
UACC-62 = assay: NCI one-dose screening, melanoma UACC-62; type: cell-based, human; details: 10 μM
HCT-15 = assay: NCI one-dose screening, colon cancer HCT-15; type: cell-based, human; details: 10 μM
RXF, 393 = assay: NCI one-dose screening, renal cancer RXF, 393; type: cell-based, human; details: 10 μM
PRMI-8226 cell line = assay: NCI one-dose screening, leukemia PRMI-8226; type: cell-based, human; details: 10 μM
SNB-19 = assay: NCI one-dose screening, CNS cancer SNB-19; type: cell-based, human; details: 10 μM
NCI-H23 = assay: NCI one-dose screening, non-small cell lung cancer NCI-H23; type: cell-based, human; details: 10 μM
MDA, -MB-435 = assay: NCI one-dose screening, breast cancer MDA, -MB-435; type: cell-based, human; details: 10 μM; listed under Melanoma
NCI-H226 = assay: NCI one-dose screening, non-small cell lung cancer NCI-H226; type: cell-based, human; details: 10 μM
SK-MEL-28 = assay: NCI one-dose screening, melanoma SK-MEL-28; type: cell-based, human; details: 10 μM
SF-295 = assay: NCI one-dose screening, CNS cancer SF-295; type: cell-based, human; details: 10 μM
HCC-2998 = assay: NCI one-dose screening, colon cancer HCC-2998; type: cell-based, human; details: 10 μM
HOP-62 = assay: NCI one-dose screening, non-small cell lung cancer HOP-62; type: cell-based, human; details: 10 μM
SK-MEL-2 = assay: NCI one-dose screening, melanoma SK-MEL-2; type: cell-based, human; details: 10 μM
OVCAR-3 = assay: NCI one-dose screening, ovarian cancer OVCAR-3; type: cell-based, human; details: 10 μM
NCl/ADR-RES = assay: NCI one-dose screening, breast cancer NCl/ADR-RES; type: cell-based, human; details: 10 μM; listed under Ovarian cancer
786-O = assay: NCI one-dose screening, renal cancer 786-O; type: cell-based, human; details: 10 μM
OVCAR-4 = assay: NCI one-dose screening, ovarian cancer OVCAR-4; type: cell-based, human; details: 10 μM
U251 = assay: NCI one-dose screening, CNS cancer U251; type: cell-based, human; details: 10 μM
K562cell line = assay: NCI one-dose screening, leukemia K562; type: cell-based, human; details: 10 μM
UO-31 = assay: NCI one-dose screening, renal cancer UO-31; type: cell-based, human; details: 10 μM
MOLT-4 = assay: NCI one-dose screening, leukemia MOLT-4; type: cell-based, human; details: 10 μM
[2] = tested on: PC-3 prostate cancer cell line; assay: SRB assay cell viability, PC-3 prostate cancer cell line; type: cell-based, human; details: Homo sapiens, PC-3 prostate cancer cell line, Table II prints no unit, μM printed, read-out: SRB assay: 50% inhibition of cancer cell proliferation of sample concentration (IC50) of PC-3 prostate cancer cell line
HS 578-T = assay: NCI one-dose screening, breast cancer HS 578-T; type: cell-based, human; details: 10 μM; Breast cancer
KM12 = assay: NCI one-dose screening, colon cancer KM12; type: cell-based, human; details: 10 μM
SK-OV-3 = assay: NCI one-dose screening, ovarian cancer SK-OV-3; type: cell-based, human; details: 10 μM
OVCAR-8 = assay: NCI one-dose screening, ovarian cancer OVCAR-8; type: cell-based, human; details: 10 μM
IGROV1 = assay: NCI one-dose screening, ovarian cancer IGROV1; type: cell-based, human; details: 10 μM
HL-60, TB = assay: NCI one-dose screening, leukemia HL-60, TB; type: cell-based, human; details: 10 μM
HOP-92 = assay: NCI one-dose screening, non-small cell lung cancer HOP-92; type: cell-based, human; details: 10 μM
SF-268 = assay: NCI one-dose screening, CNS cancer SF-268; type: cell-based, human; details: 10 μM
M14 = assay: NCI one-dose screening, melanoma M14; type: cell-based, human; details: 10 μM
DU145 = assay: NCI one-dose screening, prostate cancer DU145; type: cell-based, human; details: 10 μM
MDA-MB-468 = assay: NCI one-dose screening, breast cancer MDA-MB-468; type: cell-based, human; details: 10 μM
TK-10 = assay: NCI one-dose screening, renal cancer TK-10; type: cell-based, human; details: 10 μM
PC-3 = assay: NCI one-dose screening, prostate cancer PC-3; type: cell-based, human; details: 10 μM

SMILES: O=C1c2ccccc2C(=O)c2c1cc(Sc1ccc(Cl)cc1)c1nsnc21 [C22, 4-(4-chloro-phenylthio)anthra[2,1-c] [1,2,5]thiadiazol-6,11-dione]
Growth Percent HCT-116 (HCT-116): 98.25%
Growth Percent SF-539 (SF-539): 107.00%
Growth Percent A549/ATCC (A549/ATCC): 103.88%
Growth Percent A498 [1]: 93.03%
Growth Percent BT-549 (BT-549): 98.88%
Growth Percent NCI-H522 (NCI-H522): 102.62%
Growth Percent MALME-3M (MALME-3M): 105.10%
Growth Percent MDA-MB-231/ATCC (MDA-MB-231/ATCC): 89.05%
Growth Percent NCI-H460 (NCI-H460): 99.52%
Growth Percent CAKI-1 (CAKI-1): 86.97%
Growth Percent CCRF-CEM (CCRF-CEM): 79.34%
Growth Percent SN12C (SN12C): 86.95%
Growth Percent LOX IMVI (LOX IMVI): 83.24%
Growth Percent NCI-H322M (NCI-H322M): 100.11%
Growth Percent COLO 205 (COLO 205): 121.41%
Growth Percent UACC-257 (UACC-257): 95.45%
Growth Percent SNB-75 (SNB-75): 91.73%
Growth Percent Delta (human tumor cell lines; delta over all cell lines): 51.95%
Growth Percent Mean (human tumor cell lines; mean over all cell lines): 98.08%
Growth Percent Range (human tumor cell lines; range over all cell lines): 93.67%
Growth Percent MCF7 (MCF7): 86.11%
Growth Percent T-47D (T-47D): 85.04%
Growth Percent SR (SR): 110.89%
Growth Percent UACC-62 (UACC-62): 90.65%
Growth Percent HCT-15 (HCT-15): 98.10%
Growth Percent RXF 393 (RXF, 393): 117.52%
Growth Percent RPMI-8226 (PRMI-8226 cell line): 90.15%
Growth Percent SNB-19 (SNB-19): 105.18%
Growth Percent NCI-H23 (NCI-H23): 104.26%
Growth Percent MDA-MB-435 (MDA, -MB-435): 106.67%
Growth Percent NCI-H226 (NCI-H226): 94.77% and 93.41%
Growth Percent SK-MEL-28 (SK-MEL-28): 130.48%
Growth Percent SF-295 (SF-295): 97.26%
Growth Percent HCC-2998 (HCC-2998): 106.82%
Growth Percent HOP-62 (HOP-62): 94.80%
Growth Percent SK-MEL-2 (SK-MEL-2): 109.49%
Growth Percent OVCAR-3 (OVCAR-3): 118.64%
Growth Percent NCI/ADR-RES (NCl/ADR-RES): 102.42%
Growth Percent 786-0 (786-O): 108.70%
Growth Percent OVCAR-4 (OVCAR-4): 76.82%
Growth Percent U251 (U251): 103.69%
Growth Percent K562 (K562cell line): 94.91%
Growth Percent UO-31 (UO-31): 79.46%
Growth Percent MOLT-4 (MOLT-4): 59.21%
IC50 [2]: > 15 µM
Growth Percent HS 578T (HS 578-T): 103.37%
Growth Percent KM12 (KM12): 101.50%
Growth Percent SK-OV-3 (SK-OV-3): 108.96%
Growth Percent OVCAR-8 (OVCAR-8): 88.60%
Growth Percent IGROV1 (IGROV1): 84.93%
Growth Percent HL-60(TB) (HL-60, TB): 87.34%
Growth Percent HOP-92 (HOP-92): 101.98%
Growth Percent SF-268 (SF-268): 104.55%
Growth Percent M14 (M14): 105.44%
Growth Percent DU145 (DU145): 117.15%
Growth Percent MDA-MB-468 (MDA-MB-468): 46.13%
Growth Percent TK-10 (TK-10): 139.80%
Growth Percent PC-3 (PC-3): 86.94%

melting point: 243 to 244 °C
IC50 [2]: 7.44 µM
SMILES: Cc1ccc(C)c(Sc2cc3c(c4nsnc24)C(=O)c2ccccc2C3=O)c1 [C20, 4-(2,5-dimethyl-phenyl-thio)anthra[2,1-c] [1,2,5]thiadiazol-6,11-dione]

melting point: 244 to 245 °C
SMILES: Cc1ccc(Oc2cc3c(c4nsnc24)C(=O)c2ccccc2C3=O)cc1

SMILES: O=C1c2ccccc2C(=O)c2c1cc(S(=O)(=O)[O-])c1nsnc21.[Na+] [C3, Sodium 6,11-dioxo-6,11-dihydroanthra[2,1-c][1,2,5]thiadiazole-4-sulfonate]
melting point: 293 to 295 °C
IC50 [2]: 13.3 µM
